Results published in patent US7618957B2, “Perfluoroalkyl-containing complexes, process for their production as well as their use” (Bayer Schering Pharma Aktiengesellschaft, priority 2005, dated 2009).

Key:
[1] = Relaxivity (T1 and T2 relaxation times) in water, NMR pulse spectrometer Minispec PC 20; format: physicochemical; conditions: 40° C., 0.47 T
Procedure: (§1) The T1 and T2 relaxation times of water and plasma (bovine) with increasing concentrations of the gadolinium complexes of the title substances of Examples 1d, 5c, 14c, 15c contained therein were determined at 40° C. with use of an NMR pulse spectrometer (Minispec PC 20) at 0.47 T. The results are set forth in Table 1.

popliteal lymph nodes = assay: MRT visualization of lymph nodes after intravenous administration in rats; format: in vivo; conditions: 50 μmol of Gd/kg i.v., up to 60 minutes p.i.
Text: By way of example, the pictures show MR images of popliteal lymph nodes at different points in time after intravenous administration of 50 μmol of Gd/kg of body weight of the title substance from Example 5c), title substance from Example 14c) and title substance from Example 15c) in rats.

[2] = Plasma kinetics after intravenous administration in rats (ICP-AES); format: in vivo; conditions: 50 μmol of total gadolinium/kg i.v.; for Elimination Half-Life of Blood: calculated with WinNonlin from plasma concentrations
Procedure: After intravenous administration of 50 μmol of total gadolinium/kg of body weight of the gadolinium complexes of the title substances of Examples 1d, 5c, 14c, 15c in rats (n=3), blood samples were taken via a catheter in the common carotid artery at different points in time ([…].), the metal content was determined by means of atom emission spectrometry (ICP-AES) and converted to plasma values via a conversion factor (0.625). The elimination half-life was calculated by means of special software (WinNonlin) from the plasma concentrations.

[3] = system: arteriosclerotic plaque of WHHL rabbits; assay: MRT visualization of arteriosclerotic plaque after intravenous administration; format: in vivo, Watanabe rabbits; conditions: 50 μmol of Gd/kg i.v., 6 or 24 hours after administration
Procedure: The pictures of FIG. 3 show MR images of the aorta 6 or 24 hours after intravenous administration of 50 μmol of Gd/kg of body weight of the title substances from Example 1d) and Example 14c in Watanabe rabbits (WHHL rabbits; genetically-induced arteriosclerosis) and in control animals without arteriosclerosis (white New Zealanders). […] The localization of the plaque, especially in the aortic arch as well as in the vascular passages, was confirmed by means of Sudan-3 staining. With this test, the suitability of the compounds according to the invention as markers for arteriosclerotic plaque could be shown.

[4] = Excretion after intravenous administration in rats (ICP-AES); format: in vivo; conditions: 50 μmol of total gadolinium/kg i.v., 14 days after administration
Procedure: After intravenous administration of 50 μmol of total gadolinium/kg of body weight of the gadolinium complexes of the title substances of Examples 1d, 5c, 14c, 15c in rats (n=3), the metal content was determined in fractions up to 14 days after administration by means of atom emission spectrometry (ICP-AES) in the excretion media of urine and feces, as well as in the body (the rest of the body).

mice = assay: Acute toxicity after one-time intravenous administration in mice (preliminary); format: in vivo; conditions: one-time i.v., observation period of 7 days
Procedure: After intravenous administration of the gadolinium complexes of the title substances of Examples 1d, 5c, 14c, 15c in mice (n=3; rate of injection: 2 ml/min), the acute systemic compatibility (LD50) was determined preliminarily. In each case, several dosages with an observation period of 7 days were examined. The acute toxicities that are to be expected can be seen in Table 1.

[5] = system: inflammatory muscle lesions and necrotic areas; assay: MRT visualization of inflammatory lesions and necrotic areas in rats; format: in vivo; conditions: Rose Bengal/xenon lamp induced lesion, 50 μmol of Gd/kg i.v.
Procedure: By way of example, the pictures of FIG. 4 show MR images of inflammatory muscle lesions as well as necrotic areas at different points in time after intravenous administration of 50 μmol of Gd/kg of body weight of the title substance of Example 14c in rats. The inflammation/necrosis was induced by intravenous administration of Rose Bengal (20 mg/kg; 24 hours before the administration of contrast medium) and subsequent 20-minute irradiation with a xenon lamp.

[6] = Relaxivity (T1 and T2 relaxation times) in plasma (bovine), NMR pulse spectrometer Minispec PC 20; format: physicochemical; conditions: 40° C., 0.47 T
Procedure: as §1

[7] = system: VX2-tumor-carrying rabbits; assay: MRT visualization of lymph node metastases and primary tumors in VX2-tumor-carrying rabbits; format: in vivo; conditions: rabbits with i.m. implanted VX2 tumors, 50 μmol of Gd/kg i.v.
Procedure: The pictures of FIGS. 1 and 2 show MR images of iliac lymph nodes precontrast as well as up to 24 hours after intravenous administration of 50 μmol of Gd/kg of body weight of the title substance of Example 1d) in rabbits with i.m. implanted VX2 tumors. […] Zones where there was no signal rise within the lymph node were diagnosed as metastases and confirmed histologically (H/E staining of the lymph node sections) (FIG. 1).
At later times (24 hours p.i.), this enhancement also propagates toward the center of the tumor.

Compound	Relaxivity R1(w) = R1-relaxivity in water [1]	signal rise in the functional lymph node tissue (popliteal lymph nodes), T1-weighted turbo-spin-echo MR images (popliteal lymph nodes)	Gd Content of Blood 24 Hours p.i. [2] [%]	Elimination Half-Life of Blood [2]	signal rise in the arteriosclerotic plaque, T1-weighted inversion-recovery MR images of the aorta [3]	Body Retention 14 days [4] [%]	LD50 Mouse (mice) [mmol/kg]	signal rise in the central necrosis, T1-weighted turbo-spin-echo MR images ([5]; 24 hours p.i.)	signal rise in the inflammatorily altered tissue, T1-weighted turbo-spin-echo MR images ([5]; up to 60 minutes p.i.)	Relaxivity R1(p) = R1-relaxivity in plasma [6]	signal rise in healthy lymph node tissue (iliac lymph nodes), T1-weighted turbo-spin-echo MR images ([7]; 15 to 60 minutes p.i.)	enhancement in the primary tumor, MR images ([7]; immediately after administration)
COCCOCCOCCOCC(=O)N(CCNC(=O)CNC(=O)C(C)N1CCN(CC(=O)[O-])CCN(CC(=O)[O-])CCN(CC(=O)[O-])CC1)CCC(F)(F)C(F)(F)C(F)(F)C(F)(F)C(F)(F)C(F)(F)C(F)(F)C(F)(F)F.[Gd+3] (centres unmarked) [Example 14, N-{[1,4,7-Tris-(carboxylatomethyl)-1,4,7,10-tetraazacyclododecane-10-N-(pentanoyl-3-aza-4-oxo-5-methyl-5-yl)]-2-aminoethyl}-N-(1H,1H,2H,2H-perfluorodecyl)-2-{-2-[2-(2-methoxyethoxy)-ethoxy]-ethoxy}-acetamide, Gd Complex]	R1(w): 18.6 1/(mmol * s)	strong signal rise	0.0	1.1 h	strong signal rise	0.0	7.5	delayed signal rise	strong signal rise	R1(p): 25.5 1/(mmol * s)	–	–
COCCOCC(=O)N(CCNC(=O)CNC(=O)C(C)N1CCN(CC(=O)[O-])CCN(CC(=O)[O-])CCN(CC(=O)[O-])CC1)CCC(F)(F)C(F)(F)C(F)(F)C(F)(F)C(F)(F)C(F)(F)C(F)(F)C(F)(F)F.[Gd+3] (centres unmarked) [Example 15, N-{[1,4,7-Tris-(carboxylatomethyl)-1,4,7,10-tetraazacyclododecane-10-N-(pentanoyl-3-aza-4-oxo-5-methyl-5-yl)]-2-aminoethyl}-N-(1H,1H,2H,2H-perfluorodecyl)-2-(2-methoxyethoxy)-acetamide, Gd Complex]	R1(w): 17.2 1/(mmol * s)	strong signal rise	0.2	4.8 h	–	0.0	>10	–	–	R1(p): 24.6 1/(mmol * s)	–	–
COCCOCCOCC(=O)N(CCNC(=O)CNC(=O)C(C)N1CCN(CC(=O)[O-])CCN(CC(=O)[O-])CCN(CC(=O)[O-])CC1)CCC(F)(F)C(F)(F)C(F)(F)C(F)(F)C(F)(F)C(F)(F)C(F)(F)C(F)(F)F.[Gd+3] (centres unmarked) [Example 5, N-{[1,4,7-Tris-(carboxylatomethyl)-1,4,7,10-tetraazacyclododecane-10-N-(pentanoyl-3-aza-4-oxo-5-methyl-5-yl)]-2-aminoethyl}-N-(1H,1H,2H,2H-perfluorodecyl)-2-[2-(2-methoxyethoxy)-ethoxy]-acetamide, Gd Complex]	R1(w): 18.9 1/(mmol * s)	strong signal rise	0.0	0.8 hour hours	–	0.0	–	–	–	R1(p): 24.8 1/(mmol * s)	–	–
CC(C(=O)NCC(=O)NCCN(CCC(F)(F)C(F)(F)C(F)(F)C(F)(F)C(F)(F)C(F)(F)C(F)(F)C(F)(F)F)C(=O)CO[C@H]1O[C@H](CO)[C@@H](O)[C@H](O)[C@@H]1O)N1CCN(CC(=O)[O-])CCN(CC(=O)[O-])CCN(CC(=O)[O-])CC1.[Gd+3] (stereo partly drawn) [Example 1, N-{[1,4,7-Tris-(carboxylatomethyl)-1,4,7,10-tetracyclododecane-10-N-(pentanoyl-3-aza-4-oxo-5-methyl-5-yl)]-2-aminoethyl}-N-(1H,1H,2H,2H-perfluorodecyl)-2-(1-O-α-d-mannopyranosyl)-acetamide, Gd Complex]	R1(w): 22.7 1/(mmol * s)	–	0.7	4.8 h	strong signal rise	0.0	>10	–	–	R1(p): 25.8 1/(mmol * s)	strong signal rise	clear enhancement
